The results in this text go back to ChEMBL document CHEMBL6134876, “End-to-End Backbone Cyclization Enhances Passive Permeability of bRo5 Oligomeric Depsipeptides with Nonlinear Size Dependence” (ACS Med Chem Lett, 2025).

Starred links: 1 amine or outer side, 2 acyl side, 3 side chain; linkers in the order of their positions; H or OH if unused. Non-standard residues stand in square brackets, D forms with d. Residues, ends and D or L forms follow the SMILES beside them. X1 = CCCCC[C@H](O[*:1])C(=O)[*:2]; Ahp(2) = CCCCC[C@H](N)C(=O)O; dNMeA = CN[C@H](C)C(=O)O

Assay type in all cases: ADME
Data set [1] in a line: Permeability of compound assessed as compound recovery incubated for 14 to 18 hrs by PAMPA. The conditions noted are these: time 14-18 hrs, read-out: Drug recovery. (PAMPA measures passive passage across an artificial lipid membrane.)
Data set [2] is described as follows: Permeability of compound assessed as compound diffusion incubated for 14 to 18 hrs by PAMPA. The note with it: time 14-18 hrs.
Data set [3] can be described thus: Apparent permeability of compound incubated for 14 to 18 hrs by PAMPA. The note with it: time 14-18 hrs.

Take `CCCCC[C@H](NC(=O)[C@@H](C)N(C)C(=O)[C@H](CCCCC)OC(=O)[C@@H](C)N(C)C(=O)[C@H](CCCCC)OC(=O)[C@@H](C)N(C)C(=O)[C@H](CCCCC)OC(=O)[C@@H](C)N(C)C(=O)OC(C)(C)C)C(=O)OCc1ccccc1`: the recovery in data set [1] was determined as 93%.
Take `CCCCC[C@H](NC(=O)[C@@H](C)N(C)C(=O)[C@H](CCCCC)NC(=O)[C@@H](C)N(C)C(=O)[C@H](CCCCC)NC(=O)[C@@H](C)N(C)C(=O)[C@H](CCCCC)OC(=O)[C@@H](C)N(C)C(=O)OC(C)(C)C)C(=O)OCc1ccccc1`: in data set [1], the recovery came out at 89%. Further, the Activity in data set [2] came to 12%.
In the case of `CCCCC[C@H](OC(=O)[C@@H](C)N(C)C(=O)[C@H](CCCCC)OC(=O)[C@@H](C)N(C)C(=O)[C@H](CCCCC)OC(=O)[C@@H](C)N(C)C(=O)[C@H](CCCCC)OC(=O)[C@@H](C)N(C)C(=O)[C@H](CCCCC)OC(=O)[C@@H](C)N(C)C(=O)[C@H](CCCCC)OC(=O)[C@@H](C)N(C)C(=O)OC(C)(C)C)C(=O)OCc1ccccc1`, in data set [3], the Papp entry is on record as “Below_limit_of_detection” and the logPapp entry is reported as “Below_limit_of_detection”. The Activity in data set [2] was under 5%.
As for `CCCCC[C@@H]1NC(=O)[C@@H](C)N(C)C(=O)[C@H](CCCCC)OC(=O)[C@@H](C)N(C)C(=O)[C@H](CCCCC)NC(=O)[C@@H](C)N(C)C(=O)[C@H](CCCCC)OC(=O)[C@@H](C)N(C)C1=O` (cyclo([Ahp(2)][dNMeA][X1][dNMeA][Ahp(2)][dNMeA][X1][dNMeA])), in data set [2], the Activity was 25%.
On to `CCCCC[C@H](NC(=O)[C@@H](C)N(C)C(=O)[C@H](CCCCC)NC(=O)[C@@H](C)N(C)C(=O)[C@H](CCCCC)OC(=O)[C@@H](C)N(C)C(=O)[C@H](CCCCC)OC(=O)[C@@H](C)N(C)C(=O)OC(C)(C)C)C(=O)OCc1ccccc1`, for which, in data set [1], the recovery was found to be 92%.
